# Test results from US8106004B2, “Methods of inhibiting tumor cell aggressiveness using the microenvironment of human embryonic stem cells” (Children's Memorial Hospital, priority 2006, dated 2012).
# Tests used:
# Assay type in all cases: cell-based, human
# [1] = tested on: C8161 cells; assay: Vasculogenic mimicry and plasticity biomarkers in C8161 cells with ALK 4/5/7 inhibitor; details: C8161, ALK 4/5/7 inhibitor
# Protocol: (A) Western blot analyses of Nodal, phosphorylated SMAD-2, total SMAD 2/3, and Actin in C8161 cells 48 hours after administration of either vehicle or an ALK 4/5/7 inhibitor (SB431542, 1 μM, 10 μM). […] (B) Western blot analyses of Nodal, Tyrosinase and Actin in C8161 cells 24 hours after the administration of either vehicle or different concentrations of ALK inhibitor while (C) is a Western analyses for VE-Cadherin, Keratin 18 and Actin in C8161 cells cultured on 3-D collagen I matrices for 6 days in the presence of vehicle or different concentrations of ALK inhibitor.
# [2] = tested on: C8161 cells; assay: MICS (Membrane Invasion Culture System) invasion assay; details: C8161, ALK 4/5/7 inhibitor
# Protocol: (A) Invasion of C8161 cells following culture on unconditioned Matrigel (Control) or Matrigel preconditioned by either H1 or HSF-6 hESCs was calculated as a percentage of cells able to invade through a defined matrix (collagen IV, laminin, and gelatin)-coated membrane during a 24 hour period using the MICS (Membrane Invasion Culture System) assay. Bars represent the mean, normalized, invasion indices±standard deviations. […] (B) In vivo tumor formation in a mouse injected with C8161 cells pre-exposed for 3 days to either a control matrix (Matrigel) or a matrix conditioned by hESCs (H9 CMTX) (n=21).
# The aggressiveness of tumor cells is correlated with their ability to invade through the extracellular matrix; thus, the effect of hESC microenvironments on melanoma cell invasion was investigated.
# The derivation and phenotypic characteristics of the human melanoma cell lines have been previously described. Seftor, et. al., 2002, Clin. Experim. Metastas. 19:233-246; Seftor, et. al., 2005 Cancer Res. 65:10164-10169. […] The cultures are determined to be free of mycoplasma contamination using a PCR-based assay (Roche). […]
# [3] = tested on: Nodal; assay: Nodal expression in C8161 cells (Western blot, real time RT-PCR); details: C8161, ALK 4/5/7 inhibitor 1 μM, 10 μM
# Protocol: A determination of the effects of H9 CMTX on Nodal expression in metastatic melanoma (C8161) and breast carcinoma (MDA-MB-231) cells was undertaken. […] Exposure to H9 CMTX similarly abrogates Nodal mRNA expression in the melanoma and breast carcinoma cells (FIG. 9C).
# Protein lysates were prepared and quantified as previously described in Hess et al., 2001, Cancer Res. 61:3250-3255. Equal amounts of protein were separated by SDS-polyacrylamide gel electrophoresis under reducing conditions, and the resolved proteins were transferred onto Immobilon-P membranes (Millipore Corp., Bedford, Mass.). Membranes were blocked in 1% TBS, 0.1% Tween 20 (TBS-T) and 5% dry milk powder or 3% gelatin (for Nodal Westerns). Blots were incubated with anti-Nodal or anti-Lefty antibodies (Polyclonal rabbit anti-Nodal (H-110) 1:500 Santa Cruz Biotechnology, Santa Cruz, Calif.; Polyclonal goat anti-Lefty 1:500 R&D Systems, Minneapolis, Minn.), washed in TBS-T, and incubated with the appropriate horseradish peroxidase-labeled secondary antibody. Secondary antibodies were detected by enhanced chemiluminescence (Super Signal; Pierce, Rockford, Ill.) and exposure to autoradiography film (Molecular Technologies, St Louis, Mo.). Nodal protein was detected as two major bands at ˜48 and ˜35 kDa representing precursor and pro-Nodal respectively. Nodal often appeared as multiple bands, likely due to degradation of protein modifications. All experiments were done at least three times.
# The derivation and phenotypic characteristics of the human melanoma cell lines have been previously described. Seftor, et. al., 2002, Clin. Experim. Metastas. 19:233-246; Seftor, et. al., 2005 Cancer Res. 65:10164-10169. The melanoma cell lines are maintained in RPMI 1640 medium (Invitrogen) supplemented with 10% fetal bovine serum (FBS, Gemini Bioproducts) and 0.1% gentamycin sulfate with the exception of C81-61 cells which are maintained in Ham's FIO medium supplemented with 15% FBS, 1X Mito+ (BD Bioscience) and gentamycin sulfate. […] The cultures are determined to be free of mycoplasma contamination using a PCR-based assay (Roche). […]
# [4] = tested on: Notch; assay: Western blot analysis of Notch 1, 2 and 4 in C8161 cells; details: C8161 treated with Nodal inhibitor
# Source text: Western blot analysis of C8161 cells 72 hrs following the administration of siRNA. […] Western blot analysis of Notch 1, 2 and 4 in C8161 cells treated with the Nodal inhibitor SB431542.
smiles,measurement,setting,value
NC(=O)c1ccc(-c2nc(-c3ccc4c(c3)OCO4)c(-c3ccccn3)[nH]2)cc1 [SB431542],expression of vasculogenic mimicry plasticity biomarkers (Western blot),[1],reduction
same,vasculogenic mimicry,[1],abrogation of vasculogenic mimicry
same,invasive ability,[2],reduction in invasive ability
same,Nodal expression (Western blot),[3],down-regulation of Nodal
same,Notch expression (Western blot),[4],relatively unaffected
